Experimental findings from patent EP0102213A1, “Ethanolamine derivatives, pharmaceutical compositions containing them, and processes for preparing them” (BEECHAM GROUP PLC, priority 1982, dated 1984) are described below.

SMILES strings stand for the structures. Where a name gives a salt, the structure may show the parent alone.

The subject of one assay is left atrium. In words: Cardiac activity: tension of the electrically paced isolated left atrium. Set-up: species or system Sprague-Dawley male rats. To be noted: rat left atrium; for Emax: intrinsic activity: maximal effect relative to isoprenaline maximum (isoprenaline = 1), read-out: Tension i.a.; for EC50: electrically paced, Krebs solution 32°C, concentration producing 50% of the compound's own maximum response. The procedure: (§1) Sprague-Dawley male rats (300-400 g) are killed and the right and left atria dissected out independently and mounted on a combined tissue holder/ electrode. The tissues are then immersed in a glass bath containing Krebs solution maintained at 32°C. The rate of the spontaneously beating right atrium (via an isometric transducer and a ratemeter) and the tension of the electrically paced left atrium (via an isometric transducer) are recorded on an Ml9 chart recorder.
(§2) After an initial stabilization period, the tissues are exposed to a maximal concentration of isoprenaline (10-^7M). The tissues are then washed several times until rate and tension return to baseline level. A dose-response curve to the test compound is then carried out.
(§3) Responses to each concentration of test compound are expressed as a percentage of the maximal responses to isoprenaline. Results are given in the form of (a) intrinsic activity (i.a.) (maximal effect of test compound with respect to isoprenaline maximum, i.e. isoprenaline intrinsic activity = 1) and (b) EC50 (the molar concentration at which the test compound produces 50% of its own maximum response).

The subject of a further assay is right atrium. In words: Cardiac activity: rate of the spontaneously beating isolated right atrium. To be noted: rat right atrium; for Emax: intrinsic activity: maximal effect relative to isoprenaline maximum (isoprenaline = 1), read-out: Rate i.a.; for EC50: Krebs solution 32°C, concentration producing 50% of the compound's own maximum response. Set-up: species or system Sprague-Dawley male rats. On the procedure:
as §1, §2, §3

In a further assay the test system is Female CFLP mice. In words: Hypoglycaemic activity: blood glucose after subcutaneous glucose load in fasted mice. To be noted: 24 h fasted female CFLP mice, glucose 1 g/Kg s.c. 30 min after dosing, 2 hour AUC versus water controls. The assay is classed as in vivo. On the procedure:
Female CFLP mice, weighing approximately 25 g, were fasted for 24 hours prior to the study. The compounds under study were administered orally as an aqueous solution to each of 6 mice. 30 minutes later a blood sample (10 ul) was obtained from the tail for the analysis of blood glucose. Immediately after taking this blood sample, glucose (lg/Kg body weight) was administered subcutaneously to each mouse. 6 mice were given water as a control. Blood samples were then obtained from each mouse at 30 minute intervals for 120 minutes.
Compounds that produced a significant (P<0.05) reduction of blood glucose, compared with control mice given water, at any time interval, were considered active. The area under the blood glucose curve over the 2 hour period after the administration of the glucose was calculated for each compound and compared with the value for control animals.

In the next assay the test system is genetically obese mice. In words: Anti-obesity activity: carcass lipid after daily oral gavage for 28 days. The assay is classed as in vivo. To be noted: carcass composition. The procedure:
The compounds were administered by oral gavage in water or carboxymethyl-cellulose suspension to genetically obese mice daily for 28 days. At the end of the time the carcass composition was determined.

Where [1] appears, read: 13.4 mg/kg p.o. daily for 28 days.

In the case of `CC(Cc1ccc(OCCN2CCN(c3ccccc3)CC2)cc1)NCC(O)c1ccccc1` (centres unmarked) [Example 5, N-[2-(4-(2-(1-(4-Phenyl)piperazinyl)ethoxy)phenyl)-1-methylethyl]-2-hydroxy-2-phenylethanamine trihydrochloride], in the assay with left atrium, the Emax worked out at 67% and the EC50 was found to be 12 µM. Besides, in the assay with right atrium, the Emax was 42% and the EC50 was found to be 0.54 µM.

For `CC(Cc1ccc(OCCN2CCN(c3ccccc3)CC2)cc1)NCC(O)c1cccc(C(F)(F)F)c1` (centres unmarked) [Example 2, N-[2-(4-(2-(1-(4-Phenyl)piperazinyl)ethoxy)phenyl)-1-methylethyl]-2-hydroxy-2-(3-trifluoromethylphenyl)ethan-amine trihydrobromide], in the assay on left atrium, the Emax came out at 0%. For the same compound, the “% Reduction in area under Blood Glucose Curve” value (from here on “% Reduction in area”) in the assay on Female CFLP mice (2.5 μmol/Kg orally) is given as 64%.

Consider `CC(Cc1ccc(OCCN2CCN(Cc3ccccc3)CC2)cc1)NCC(O)c1cccc(C(F)(F)F)c1` (centres unmarked) [Example 1, N-[2-(4-(2-(1-(4-Benzyl)piperazinyl)ethoxy)henyl)-1-methylethyl]-2-hydroxy-2-(3-trifluoromethylphenyl)ethanamine trihydrochloride], for which the Emax in the assay with left atrium and in the assay with right atrium was 0% in each case. Further, in the assay with Female CFLP mice (2.5 μmol/Kg orally), the “% Reduction in area” value is recorded as 38%.

Consider `CC(Cc1ccc(OCCN2CCN(c3ccccc3)CC2)cc1)NCC(O)c1ccccc1F` (centres unmarked) [Example 6, N-[2-(4-(2-(1-(4-Phenyl)piperazinyl)ethox)phenyl)-1-methylethyl]-2-hydroxy-2-(2-fluorophenyl)ethanamine trihydrochloride], for which, in the assay with left atrium, the Emax was 28% and the EC50 is 14 µM. In the assay with right atrium, the Emax came to 44% and the midpoint of the response, the EC50, lay at 0.35 µM.

As for `CC(Cc1ccc(OCCN2CCN(c3ccccc3)CC2)cc1)NCC(O)c1cccc(Cl)c1F` (centres unmarked) [Example 7, N-[2-(4-(2-(1-(4-Phenyl)piperazinyl)ethoxy)phenyl)-1-methylethyl]-2-hydroxy-2-(2-fluoro-3-chlorophenyl)ethanamine trihydrochloride], the Emax in the assay on left atrium was 0%. Besides, in the assay with right atrium, the Emax was 35% and the EC50 worked out at 0.17 µM.

`CC(Cc1ccc(OCCN2CCN(c3ccc(Cl)cc3)CC2)cc1)NCC(O)c1cccc(C(F)(F)F)c1` (centres unmarked) [Example 10, N-[2-(4-(2-(1-(4-(4-Chlorophenyl))piperazinyl)ethoxy)-phenyl)-1-methylethyl]-2-hydroxy-2-(3-trifluoromethylphenyl)ethanamine trihydrochloride]: in the assay with left atrium, the Emax was 100% and it took 27 µM to reach a half-maximal effect (EC50). Also, in the assay with right atrium, the Emax stood at 86% and the midpoint of the response, the EC50, lay at 20 µM.

Take `CC(Cc1ccc(OCCN2CCN(C)CC2)cc1)NCC(O)c1cccc(C(F)(F)F)c1` (centres unmarked) [Example 14, N-[2-(4-(2-(1-(4-Methyl)piperazinyl)ethoxy)henyl)-1-methylethyl]-2-hydroxy-2-(3-trifluoromethylphenyl) ethanamine trihydrochloride, monohydrate]: the “g LIPID/MOUSE TREATED” value in the assay with genetically obese mice (11.9 mg/kg p.o. daily for 28 days) was 18.26 g. In addition, the Emax with left atrium came out at 0%. In addition, in the assay with right atrium, the Emax was determined as 4% and the EC50 was determined as 1.7 µM.

Turning to `Br.Br.Br.CC(Cc1ccc(OCCN2CCNCC2)cc1)NCC(O)c1cccc(C(F)(F)F)c1` (centres unmarked) [Example 3, N-[2-(4-(2-(1-Piperazinyl)ethoxy)phenyl)-1-methylethyl]-2-hydroxy-2-(3-trifluoromethylphenyl)ethanamine trihydrobromide], the “% Reduction in area” value in the assay on Female CFLP mice (2.5 μmol/Kg orally) is on record as 20%.

As for `CC(Cc1ccc(OCCN2CCN(c3cccc(C(F)(F)F)c3)CC2)cc1)NCC(O)c1cccc(Cl)c1` (centres unmarked) [Example 13, N-[2-(4-(2-(1-(4-(3-Trifluoromethylphenyl))piperazinyl)-ethoxy)phenyl)-1-methylethyl]-2-hydroxy-2-(3-chlorophenyl) ethanamine trihydrochloride], the “g LIPID/MOUSE TREATED” value in the assay with genetically obese mice (setting [1]) is listed as 16.40 g. For the same compound, in the assay on left atrium, the Emax is 33% and a half-maximal effect (EC50) was put at 45 µM. Also, in the assay with right atrium, the Emax was found to be 7% and a half-maximal response (EC50) required 0.035 µM.

Consider `CC(Cc1ccc(OCCN2CCN(c3cccc(Cl)c3)CC2)cc1)NCC(O)c1cccc(C(F)(F)F)c1` (centres unmarked) [Example 8, N-[2-(4-(2-(1-(4-(3-Chlorophenyl))piperazinyl)ethoxy)-phenyl)-1-methylethyl]-2-hydroxy-2-(3-trifluoromethylphenyl)ethanamine trihydrochloride], for which the “g LIPID/MOUSE TREATED” value in the assay with genetically obese mice (setting [1]) came to 18.06 g.

`COC(CNC(C)Cc1ccc(OCCN2CCN(c3ccccc3)CC2)cc1)c1cccc(Cl)c1` (centres unmarked) [Example 15, N-[2-(4-(2-(1-(4-Phenyl)piperazinyl)ethoxy)phenyl)-1-methylethyl]-2-methoxy-2-(3-chlorophenyl)ethanamine trihydrochloride]: in the assay on Female CFLP mice (12.5 μmol/Kg orally), the “% Reduction in area” value amounted to 47%.
